According to publication PMC6740044 (ACS Omega, 2019):
One block for each compound: values may come before it. Bridge positions count the residues as written; N and C are the ends. Peptide text beside a SMILES is read from it.

Experiments:
[1] = molecular target: Herceptin (human IgG1) (human); assay: SPR
[2] = molecular target: Herceptin (human IgG1) (human); assay: ITC
Herceptin (human IgG1) = Herceptin (human IgG1) (Homo sapiens, UniProt P01857); assay: Isothermal titration calorimetry; details: ITC, 25 °C, single-site binding model, measured three times
Sequence of Herceptin (human IgG1) (P01857 104-328): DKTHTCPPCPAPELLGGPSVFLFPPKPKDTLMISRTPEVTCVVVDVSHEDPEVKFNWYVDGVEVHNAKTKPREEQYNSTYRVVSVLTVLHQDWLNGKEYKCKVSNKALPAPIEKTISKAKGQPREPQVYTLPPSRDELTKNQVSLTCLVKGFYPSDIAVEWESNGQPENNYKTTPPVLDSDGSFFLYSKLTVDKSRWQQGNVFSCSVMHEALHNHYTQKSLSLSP

Compound: 15-Lys8Phe (peptide)
Kd [1]: 40 nM

Compound: 15-Lys8Tle (peptide)
Kd [2]: 200 nM

ΔG (Herceptin (human IgG1)): –9.1 ± 0.0 kcal/mol
ΔH (Herceptin (human IgG1)): –13 ± 0 kcal/mol
–TΔS (Herceptin (human IgG1)): 3.5 ± 0.1 kcal/mol
Compound: CC(=O)N[C@@H](CC(=O)O)C(=O)N[C@H]1CSSC[C@@H](C(=O)N[C@H](C(=O)N[C@@H](Cc2ccccc2)C(=O)N[C@@H](Cc2c[nH]cn2)C(N)=O)[C@@H](C)O)NC(=O)[C@H](Cc2c[nH]c3ccccc23)NC(=O)[C@H](C(C)C)NC(=O)[C@H](CC(C)C)NC(=O)[C@H](CCC(=O)O)NC(=O)CNC(=O)[C@H](CCCCN)NC(=O)[C@H](Cc2c[nH]cn2)NC(=O)[C@H](Cc2ccc(O)cc2)NC(=O)[C@H](C)NC1=O [15-IgBP] (Ac-DCAYHKGELVWCTFH-NH2; disulfide 2-12)
